Where two headings read alike, the source gives them in different places.
Assays:
[1] = system: renal cancer cell lines; experiment: Cell based assay, cell viability (CellTiter-Glo), renal cancer cell lines; details: Homo sapiens; ACHN cells
Procedure, shortened: (§1)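 72-hour continuous compound exposure, 0 to 2 μM final, begun one day after seeding; endpoint is ATP-based luminescent viability.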

[2] = system: neuroblastoma cell lines; experiment: Cell based assay, cell viability (CellTiter-Glo), neuroblastoma cell lines; details: Homo sapiens; SH-SY5Y cell line
Procedure, shortened: as §1

[3] = system: colorectal cancer cell lines (e.g. DLD-1, HCT 116, SW620, HCT-15, HCT-8, RKO); experiment: Cell based assay, cell viability (CellTiter-Glo), colorectal cancer cell lines
Procedure, shortened: as §1

[4] = Homo sapiens, DLD-1, 72 hours treatment, read-out: IC50, colorectal cancer cell line DLD-1
[5] = Homo sapiens, HCT 116, 72 hours treatment, read-out: IC50, colorectal cancer cell line HCT 116
[6] = Homo sapiens, HCT-8, 72 hours treatment, read-out: IC50, colorectal cancer cell line HCT-8
[7] = Homo sapiens, HCT-15, 72 hours treatment, read-out: IC50, colorectal cancer cell line HCT-15
[8] = Homo sapiens, HT-29, 72 hours treatment, read-out: IC50, colorectal cancer cell line HT-29
[9] = Homo sapiens, LoVo, 72 hours treatment, read-out: IC50, colorectal cancer cell line LoVo
[10] = Homo sapiens, SW480, 72 hours treatment, read-out: IC50, colorectal cancer cell line SW480
[11] = Homo sapiens, SW-620, SW620, 72 hours treatment, read-out: IC50, colorectal cancer cell line SW620
[12] = RKO, 72 hours treatment, read-out: IC50, colorectal cancer cell line RKO

Row | SMILES | IC50 [1] [µM] | IC50 [2] [µM] | IC50 [3, 4] [µM] | IC50 [3, 5] [µM] | IC50 [3, 6] [µM] | IC50 [3, 7] [µM] | IC50 [3, 8] [µM] | IC50 [3, 9] [µM] | IC50 [3, 10] [µM] | IC50 [3, 11] [µM] | IC50 [3, 12] [µM]
1 | CC(=O)c1c([S+]([O-])Cc2ccc([N+](=O)[O-])cc2)[nH]c2c(Br)ccc(Cl)c2c1=O (centres unmarked) [Compound 33, 3-acetyl-8-bromo-5-chloro-2-((4-nitrobenzyl)sulfinyl)quinolin-4(1H)-one] | > 2 | > 2 | 0.94 | 1.33 | 1.65 | 1.53 | > 10 | > 2 | > 2 | 1.51 | 1.5
2 | CC(=O)c1c([S+]([O-])Cc2cc(C)on2)[nH]c2c(Br)ccc(Cl)c2c1=O (centres unmarked) [Compound 51, 3-acetyl-8-bromo-5-chloro-2-(((5-methylisoxazol-3-yl)methyl)sulfinyl)quinolin-4(1H)-one] | > 2 | > 2 | 0.66 | 0.84 | 1.21 | 1.01 | > 10 | 1.64 | 0.95 | 1 | 1.1
3 | COc1cccc(C[S+]([O-])c2[nH]c3c(Br)ccc(Cl)c3c(=O)c2C(C)=O)c1 (centres unmarked) [Compound 55, 3-acetyl-8-bromo-5-chloro-2-((3-methoxybenzyl)sulfinyl)quinolin-4(1H)-one] | > 2 | > 2 | 1.15 | 1.81 | > 2 | 1.81 | > 10 | > 2 | > 2 | 1.91 | > 2
4 | CC(=O)c1c([S+]([O-])Cc2ccc(SC(F)(F)F)cc2)[nH]c2c(Br)ccc(Cl)c2c1=O (centres unmarked) [Compound 56, 3-acetyl-8-bromo-5-chloro-2-((4-((trifluoromethyl)thio)benzyl)sulfinyl)quinolin-4(1H)-one] | > 2 | > 2 | 0.8 | 1.19 | 1.69 | 1.32 | > 10 | > 2 | > 2 | 1.91 | 1.53

Now from value to compound:

Row | IC50 [1] [µM] | IC50 [2] [µM] | IC50 [3, 4] [µM] | IC50 [3, 5] [µM] | IC50 [3, 6] [µM] | IC50 [3, 7] [µM] | IC50 [3, 8] [µM] | IC50 [3, 9] [µM] | IC50 [3, 10] [µM] | IC50 [3, 11] [µM] | IC50 [3, 12] [µM] | SMILES
5 | > 2 | > 2 | 0.87 | 1.21 | 1.71 | 1.4 | > 10 | > 2 | > 2 | 1.38 | 1.57 | CC(=O)c1c([S+]([O-])Cc2ccc(F)cc2F)[nH]c2c(Br)ccc(Cl)c2c1=O (centres unmarked) [Compound 29, 3-acetyl-8-bromo-5-chloro-2-((2,4-difluorobenzyl)sulfinyl)quinolin-4(1H)-one]
6 | > 2 | > 2 | 0.82 | 1.18 | 1.42 | 1.25 | > 10 | > 2 | 1.66 | 1.35 | 1.42 | CC(=O)c1c([S+]([O-])Cc2ccc(F)c(Cl)c2)[nH]c2c(Br)ccc(Cl)c2c1=O (centres unmarked) [Compound 31, 3-acetyl-8-bromo-5-chloro-2-((3-chloro-4-fluorobenzyl)sulfinyl)quinolin-4(1H)-one]
7 | > 2 | > 2 | 1.32 | 1.84 | > 2 | 1.95 | > 10 | > 2 | > 2 | 1.87 | > 2 | CC(=O)c1c(S(=O)(=O)Cc2ccccc2)[nH]c2c(Br)ccc(Cl)c2c1=O [Compound 34, 3-acetyl-2-(benzylsulfonyl)-8-bromo-5-chloroquinolin-4(1H)-one]
8 | > 2 | > 2 | 0.89 | 1.2 | 1.66 | 1.48 | > 10 | > 2 | 1.34 | 1.45 | 1.15 | CC(=O)c1c([S+]([O-])Cc2cc(Cl)ccc2Cl)[nH]c2c(Br)ccc(Cl)c2c1=O (centres unmarked) [Compound 44, 3-acetyl-8-bromo-5-chloro-2-((2,5-dichlorobenzyl)sulfinyl)quinolin-4(1H)-one]
9 | > 2 | > 2 | 1.26 | 1.82 | > 2 | 1.94 | > 10 | > 2 | > 2 | 1.75 | 1.83 | CC(=O)c1c([S+]([O-])Cc2cc(F)cc(F)c2)[nH]c2c(Br)ccc(Cl)c2c1=O (centres unmarked) [Compound 46, 3-acetyl-8-bromo-5-chloro-2-((3,5-difluorobenzyl)sulfinyl)quinolin-4(1H)-one]
10 | > 2 | > 2 | 0.99 | 1.39 | 1.99 | 1.59 | > 10 | > 2 | > 2 | 1.58 | 1.77 | CC(=O)c1c([S+]([O-])Cc2cccc(F)c2)[nH]c2c(Br)ccc(Cl)c2c1=O (centres unmarked) [Compound 50, 3-acetyl-8-bromo-5-chloro-2-((3-fluorobenzyl)sulfinyl)quinolin-4(1H)-one]
